# In publication PMC9820316, “Novel Arylpiperazine Derivatives of Salicylamide with α1-Adrenolytic Properties Showed Antiarrhythmic and Hypotensive Properties in Rats” (International Journal of Molecular Sciences, 2022):
# What was measured:
# α2-adrenergic receptors = test: α2-adrenoceptor radioligand binding assay ([3H]-clonidine, rat cortex); conditions: rat cortex tissue, mean ± SEM, n.a. = did not bind at 10^−5 M
# Method: (§1) The α1- and α2-adrenoceptor radioligand binding assays were performed on the rat cerebral cortex using previously described methods. […] The brains were homogenized using the ULTRA-TURRAX homogenizer in 10 mL of an ice-cold 50 mM Tris-HCl buffer (pH 7.6). The homogenates were centrifuged at 20,000× g for 20 min (0–4 °C). Subsequently, the cell pellet was resuspended in the Tris–HCl buffer and centrifuged again. Radioligand binding assays were carried out in plates (MultiScreen/Millipore). The final incubation mixture, with a volume of 300 μL, consisted of 240 μL of the tissue suspension, 30 μL of the radioligand solution, and 30 μL of the buffer containing 7–8 concentrations of the studied compounds. In order to measure the unspecific binding, 10 μM phentolamine (for [^3H]-prazosin) or 10 μM clonidine (for [^3H]-clonidine) were utilized. The incubation was completed by rapid filtration through Whatman GF/C filters using a vacuum manifold (Millipore). The filters were then washed twice with the assay buffer and placed in scintillation vials with a liquid scintillation cocktail. Radioactivity was measured in a WALLAC 1409 DSA liquid scintillation counter (Perkin Elmer, USA). All the assays were performed in duplicates, and the inhibitory constants (Ki) were calculated.
# [1] = tested on: calcium chloride-induced arrhythmia model in rats; test: Prophylactic antiarrhythmic activity in calcium chloride-induced arrhythmia; type: in vivo, rat; conditions: 5 mg/kg iv 15 min before calcium chloride 140 mg/kg; number of animals with event
# Method: (§2) The animals were anesthetized with thiopental (75 mg/kg ip). Depending on the model, either adrenaline, aconitine, or calcium chloride was used as an arrhythmogen. Adrenaline and aconitine were administered iv at a dose of 20 µg/kg, whereas calcium chloride was administered at a dose of 140 mg/kg to induce heart rhythm disturbances. The tested compounds were injected iv 15 min before the arrhythmogen. Aspel ASCARD apparatus (standard II lead, with the tape speed 50 mm/s and voltage calibration 1 mV = 1 cm) was used for ECG measurements. […] The ED50 was calculated using the method of Litchfield and Wilcoxon.
# [2] = tested on: aconitine-induced arrhythmia model in rats; test: Prophylactic antiarrhythmic activity in aconitine-induced arrhythmia; type: in vivo, rat; conditions: 5 mg/kg iv 15 min before aconitine 20 μg/kg; number of animals with event
# Method: as §2
# α1-adrenergic receptors = test: α1-adrenoceptor radioligand binding assay ([3H]-prazosin, rat cortex); conditions: rat cortex tissue, mean ± SEM
# Method: as §1
# [3] = tested on: adrenaline-induced arrhythmia model in rats; test: Prophylactic antiarrhythmic activity in adrenaline-induced arrhythmia; type: in vivo, rat; conditions: for Blocks / Bradycardia / Extrasystoles / Mortality: number of animals with event
# Method: as §2
# [4] = tested on: pressor response to methoxamine in rats; test: Influence on blood vasopressor response to methoxamine in rats; type: in vivo, rat; conditions: 5 mg/kg iv, methoxamine 150 μg/kg before and 5 min after compound
# Method: The experiment was performed to establish the effect of the studied derivatives on the pressor response to methoxamine (150 µg/kg, iv), according to the methods described previously. Normotensive Wistar rats were anesthetized with thiopental (75 mg/kg ip). The right carotid artery was cannulated with a polyethylene tube filled with heparin solution using a Datamax apparatus (Columbus Instruments, Columbus, OH, USA). After a 15-min stabilization period, the pressor response to methoxamine before (control) and 5 min after the administration of the tested compounds was measured (Figure 4B). The tested compounds were administered at the lowest hypotensive dose.
# [5] = tested on: adrenaline-induced arrhythmia model in rats; test: Therapeutic antiarrhythmic activity in adrenaline-induced arrhythmia; conditions: 1 mg/kg iv immediately after adrenaline 20 µg/kg; number of animals with event
# Method: The experiments were carried out according to the method described by Szekeres and Papp [71]. The heart rhythm disturbances, such as extrasystoles, conduction blocks, and bradycardia, were induced by iv injection of adrenaline (20 µg/kg) to anesthetized rats (thiopental, 75 mg/kg, ip). […] The Aspel ASCARD apparatus (standard II lead, with a tape of speed 50 mm/s and voltage calibration of 1 mV = 1 cm) was used for the ECG measurements. The ECG was recorded during the first 2 min and in the 5th, 10th, and 15th min after the adrenaline injection (Figure 3B). The lack or decreased amount of extrasystoles, atrioventricular blocks, and bradycardia in the ECG recordings compared to the control group was the criterion of antiarrhythmic activity [72].
# Automated ECG waveform analysis was evaluated as described earlier [55], using Eleven Maze software version 0.1 from Eleven Products Sp. z o.o. […] The software, under expert supervision, recognized and classified the heart rhythm irregularities. It also calculated PQ, QRS, QTc, and rate parameters.
# normal ECG in rats = test: Effect on a normal electrocardiogram in rats; type: in vivo, rat; conditions: 5 mg/kg iv; for HR—heart rate / PQ interval / QRS complex / QTc (Bazzett's formula): mean ± SD; for PQ interval / QRS complex / QTc (Bazzett's formula): in ms (unit assumed)
# Method: The procedure was performed to exclude the negative effects of the tested compounds on the normal ECG, according to the method described earlier. […] Firstly, animals were anesthetized with thiopental (75 mg/kg ip). […] The influence on PQ, QTc interval, QRS complex, and heart rate was evaluated. The Bazzett’s formula: QTc = QT/√RR was used to calculate QTc. All the studied compounds were administered at a dose of 5 mg/kg.
# [6] = 0.02 mg/kg iv 15 min before adrenaline 20 μg/kg
# [7] = 0.05 mg/kg iv 15 min before adrenaline 20 μg/kg
# [8] = 0.1 mg/kg iv 15 min before adrenaline 20 μg/kg
# [9] = 0 min (prior to administration)
smiles,measurement,setting,value
"Clc1cccc(Cl)c1N=C1NCCN1 [Clonidine, clonidine, reference compound]",Adrenergic Receptors—pKi α2,α2-adrenergic receptors,8.30 ± 0.01
"COc1ccccc1N1CCN(CCCCOc2ccccc2C(N)=O)CC1.Cl [JJGW07, 2-{4-[4-(2-metoxyphenyl)piperazin-1-ylo]butoxy}benzamide hydrochloride]",Blocks,[1],6/6
same,Bradycardia,[1],6/6
same,Extrasystoles,[1],6/6
same,Fibrillations,[1],6/6
same,Mortality,[1],6/6
same,Blocks,[2],6/6
same,Bradycardia,[2],6/6
same,Extrasystoles,[2],6/6
same,Fibrillations,[2],6/6
same,Mortality,[2],6/6
same,Adrenergic Receptors—pKi α1,α1-adrenergic receptors,7.85 ± 0.01
same,Blocks,[3]; [6],6/6
same,Bradycardia,[3]; [6],6/6
same,Extrasystoles,[3]; [6],5/6
same,Mortality,[3]; [6],3/6
same,Blocks,[3]; [7],4/6
same,Bradycardia,[3]; [7],4/6
same,Extrasystoles,[3]; [7],5/6
same,Mortality,[3]; [7],0/6
same,Blocks,[3]; [8],3/6
same,Bradycardia,[3]; [8],3/6
same,Extrasystoles,[3]; [8],4/6
same,Mortality,[3]; [8],0/6
same,ED50 value lower than that of carvedilol,"[3]; adrenaline-induced arrhythmia, prophylactic, carvedilol ref 62",9 fold
same,ED50,"[3]; prophylactic, iv 15 min before adrenaline 20 μg/kg, confidence limits in brackets (Litchfield and Wilcoxon)",0.04 (0.01–0.15) mg/kg
same,attenuation of the methoxamine pressor response,[4],100%
same,Blocks,[5],2/5
same,Bradycardia,[5],1/5
same,Mortality,[5],0/5
same,effect on the heart rate during the ECG recording,normal ECG in rats,did not affect the heart rate
same,HR—heart rate,normal ECG in rats; [9],328.7 ± 9.3
same,PQ interval,normal ECG in rats; [9],40.7 ± 2.1
same,QRS complex,normal ECG in rats; [9],47.0 ± 6.3
same,QTc (Bazzett's formula),normal ECG in rats; [9],196.5 ± 8.0
same,HR—heart rate,normal ECG in rats; 5 min,341.2 ± 11.5
same,PQ interval,normal ECG in rats; 5 min,40.0 ± 2.2
same,QRS complex,normal ECG in rats; 5 min,49.7 ± 7.9
same,QTc (Bazzett's formula),normal ECG in rats; 5 min,190.8 ± 4.2
same,HR—heart rate,normal ECG in rats; 10 min,333.2 ± 20.9
same,PQ interval,normal ECG in rats; 10 min,40.7 ± 3.7
same,QRS complex,normal ECG in rats; 10 min,48.7 ± 7.2
same,QTc (Bazzett's formula),normal ECG in rats; 10 min,196.3 ± 9.5
same,HR—heart rate,normal ECG in rats; 15 min,336.3 ± 20.9
same,PQ interval,normal ECG in rats; 15 min,40.7 ± 1.6
same,QRS complex,normal ECG in rats; 15 min,48.7 ± 9.2
same,QTc (Bazzett's formula),normal ECG in rats; 15 min,192.4 ± 7.5
"Cc1ccc(N(CC2=NCCN2)c2cccc(O)c2)cc1 [Phentolamine, phentolamine, reference compound]",Adrenergic Receptors—pKi α1,α1-adrenergic receptors,8.05 ± 0.01
